The structures appear in SMILES notation.

The target in this assay is CK2α (Homo sapiens, UniProt P68400). Kind of assay: biochemical. The note with it: read-out: % inhibition of phosphorylation activity of CK2α.
Chain of CK2α (P68400 2-329): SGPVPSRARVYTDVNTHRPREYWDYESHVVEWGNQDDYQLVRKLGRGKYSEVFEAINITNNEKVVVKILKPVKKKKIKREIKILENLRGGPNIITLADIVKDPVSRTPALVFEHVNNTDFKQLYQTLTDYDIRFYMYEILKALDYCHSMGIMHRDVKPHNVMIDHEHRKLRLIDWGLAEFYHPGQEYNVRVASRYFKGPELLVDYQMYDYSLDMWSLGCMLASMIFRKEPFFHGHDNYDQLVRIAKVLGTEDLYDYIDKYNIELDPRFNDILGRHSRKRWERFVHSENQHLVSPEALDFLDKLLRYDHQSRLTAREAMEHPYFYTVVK

Usually inhibition stands for the change of the read-out against control, counted positive when it falls. As to `NCc1cc(Cl)cc(-c2cccc3[nH]ccc23)c1` [Compound 7, (3-chloro-5-(1H-indol-4-yl)phenyl)methanamine], the inhibition at 100 µM came to 18%.

The values above are taken from publication PMC6562204 (Bioorganic & Medicinal Chemistry, 2018).
